Source: US20230313318A1, “MICR[…] METHOD OF USE THEREOF” (priority 2022, published 2023)
Where “and” joins values, the source holds several entries; their conditions need not be identical. Equal values may be shown once.

Test system: D. immitis JYD-34 (macrocyclic lactone resistant isolate)
Set-up: species or system Dirofilaria immitis
Details: in vivo

## Milbemycin oxime [MBO]
  JYD-34 heartworms among recovered worms, all seven dogs in Group 4: 100%
  Number of JYD-34 Worms: 18 and 15 and 21 and 22 and 14 and 20
po
  Percentage of JYD-34 Worms: 100%
